Results on two compounds are retold here after patent US11873287B2, “Piperidine-2,6-dione derivatives and ulcerative colitis treating” (TIANJIN HEMAY PHARMACEUTICAL SCI-TECH CO., LTD, priority 2016, dated 2024).

Each structure is given as a SMILES string.

One series has as its system ICR mice. As to the kind of experiment: Acute toxicity experiment of single oral administration in mice. The format is in vivo. The following applies: 1000 mg/Kg single oral dose. Summed up: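 Fasted ICR mice (19–21 g, 3 male and 3 female per group) received a single oral dose of 1000 mg/Kg, given first to one of each sex, then to the remaining four. Acute signs were scored over the first 15 min, then state, deaths and daily body weight over 7 days.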

Series [1] has as its system DSS-Induced inflammatory Bowel Disease Models in Mice. Kind of series: DSS-induced inflammatory bowel disease model in mice (Biological Example 5, 1.3% DSS). Particulars: 30 mg/Kg i.g. Q.D, 1.3% DSS days 0-5; for inhibition in vivo at 30 mg/kg: Mus musculus, po, read-out: Inhibitory Rate of Colonic Reduction. The format is in vivo, C57BL/6 mice. The protocol:
40 healthy female C57BL/6 mice having weight of 16-19 g were randomly divided into 4 groups in accordance with weight. There were 10 mice in each group (see Table 6 below). The first day of the experiment was recorded as Day 0. The administration regimen and induction regimen were detailed in Table 6. The change in weight of experimental animals was recorded every day. […] Samples of animal colonic tissues were obtained to measure the length. One-way ANOVA analysis of mice weights was performed by SPSS22. Statistical analyses between groups were performed. Mann-Whitney U non-parametric test was performed on the length of colon.
The experimental method used in the present biological example is identical to those in Biological Example 3.
One-way ANOVA analysis of mice body weights and colonic weights per length was performed by SPSS22. Statistical analyses between groups were performed.
Calculation Formula of Inhibitory Rate of Colonic Reduction: (Length of Colon in Administration Group−Length of Colon in Model Group)/(Length of Colon in Blank Group−Length of Colon in Model Group)

As to `COCCCN1C(=O)CCC(N2C(=O)c3cccc(F)c3C2=O)C1=O` (stereo not drawn) [Example 17, 4-fluoro-2-(1-(3-methoxypropyl)-2,6-dioxopiperidin-3-yl)isoindolin-1,3-dione], the “Daily Body Weight of Tested Female Mice (Mean ± SD)” value is on record as 18.6 ± 1.0 g with ICR mice (Day 1); 21.9 ± 0.4 g with ICR mice (Day 2); 22.7 ± 0.4 g in the series with ICR mice (Day 3); 22.7 ± 0.4 g with ICR mice (Day 4); 23.0 ± 0.4 g with ICR mice (Day 5); 23.1 ± 1.0 g in the series on ICR mice (Day 6). For the same compound, the “Daily Body Weight of Tested Female Mice (Mean ± SD)” value in the series with ICR mice (Day 7) worked out at 22.7 ± 1.2 g. For the same compound, the “Daily Body Weight of Tested Male Mice (Mean ± SD)” value in the series on ICR mice (Day 1) is listed as 19.0 ± 0.7 g; in the series on ICR mice (Day 2), 24.0 ± 0.7 g; in the series on ICR mice (Day 3), 24.6 ± 0.8 g; in the series with ICR mice (Day 4), 24.6 ± 0.8 g; in the series on ICR mice (Day 5), 26.1 ± 0.7 g; in the series on ICR mice (Day 6), 28.1 ± 0.6 g. The “Daily Body Weight of Tested Male Mice (Mean ± SD)” value with ICR mice (Day 7) came out at 29.3 ± 1.0 g. The “Summary of toxic response of tested animals in 7 Days” value in the series with ICR mice (Female) was “Motor dysfunction in one animal was observed 10 minutes after”; in the series on ICR mice (Male) it was “Motor dysfunction in two animals was observed 30 minutes after”. Also, the “Length (cm, Mean ± SD) of colon” value in series [1] was found to be 7.0 ± 0.4 cm. For the same compound, the inhibition in vivo at 30 mg/kg in series [1] was found to be 109%.
Consider `CCOCCN1C(=O)CCC(N2C(=O)c3cccc(F)c3C2=O)C1=O` (stereo not drawn) [Example 20, 4-fluoro-2-(1-(2-ethoxyethyl)-2,6-dioxopiperidin-3-yl)isoindolin-1,3-dione], for which the “Daily Body Weight of Tested Female Mice (Mean ± SD)” value was 18.7 ± 0.4 g with ICR mice (Day 1); 21.6 ± 1.0 g in the series on ICR mice (Day 2); 22.1 ± 1.0 g with ICR mice (Day 3); 22.1 ± 1.0 g in the series on ICR mice (Day 4); 23.0 ± 1.4 g in the series on ICR mice (Day 5); 23.3 ± 0.2 g in the series on ICR mice (Day 6). In addition, in the series on ICR mice (Day 7), the “Daily Body Weight of Tested Female Mice (Mean ± SD)” value is recorded as 23.7 ± 0.8 g. For the same compound, the “Daily Body Weight of Tested Male Mice (Mean ± SD)” value turned out to be 18.8 ± 1.0 g in the series on ICR mice (Day 1); 24.0 ± 1.1 g with ICR mice (Day 2); 25.3 ± 1.2 g with ICR mice (Day 3); 25.3 ± 1.2 g with ICR mice (Day 4); 26.7 ± 1.2 g in the series on ICR mice (Day 5); 29.0 ± 1.1 g with ICR mice (Day 6). For the same compound, the “Daily Body Weight of Tested Male Mice (Mean ± SD)” value in the series with ICR mice (Day 7) came out at 29.3 ± 0.7 g. Moreover, the figures for the “Summary of toxic response of tested animals in 7 Days” value with ICR mice (Female) and in the series on ICR mice (Male) were “Decrease of activity was observed in two animals in 10 minutes” and “Decrease of activity was observed in one animal 11 minutes after”, respectively. In addition, the “Length (cm, Mean ± SD) of colon” value in series [1] is listed as 6.9 ± 0.6 cm. Further, in series [1], the inhibition in vivo at 30 mg/kg was 100%.
